According to patent US20060069132A1, “Azolecarboxamide herbicides” (priority 2004, published 2006):
Read-outs that look alike come from different tables or passages of the source.

Tests used:
velvetleaf = test: Test C pre-/postemergence herbicide test; assay type: in vivo, Abutilon theophrasti
Outline: (§1)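 Greenhouse-grown plants were evaluated visually 12 to 14 days after treatment, with 100 meaning complete control and 0 no effect. Application was preemergence, or postemergence at 2 to 18 cm.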

morningglory = test: Test A pre-/postemergence herbicide test; assay type: in vivo, Ipomoea spp.; details: for pest or weed control at 500 g/ha / pest or weed control at 2000 g/ha: Ipomoea, 240 h
Outline: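 Plants are held in greenhouse about ten days after treatment, then compared with untreated controls and scored 0 (no effect) to 100 (complete control). Preemergence dosing is a directed soil spray on sown sandy loam; postemergence dosing is spray to runoff at 2–10 cm height.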

giant foxtail = test: Test C pre-/postemergence herbicide test; assay type: in vivo, Setaria faberi
Outline: as §1

barnyardgrass = test: Test C flooded paddy test; assay type: in vivo, Echinochloa crus-galli
Outline: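 After a postemergence application at 1 to 4 leaves (plants 2–18 cm high), or at 2 leaves for barnyardgrass in flooded paddy, plants stayed in the greenhouse for 12 to 14 days. Damage was then judged visually relative to control plants, with 100 indicating complete control.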

yellow nutsedge = test: Test C pre-/postemergence herbicide test; assay type: in vivo, Cyperus esculentus
Outline: as §1

woolly cupgrass = test: Test C pre-/postemergence herbicide test; assay type: in vivo, Eriochloa villosa
Outline: as §1

[1] = system: common (oilseed) sunflower; test: Test C pre-/postemergence herbicide test; assay type: in vivo, Helianthus annuus
Outline: as §1

bermudagrass = test: Test C pre-/postemergence herbicide test; assay type: in vivo, Cynodon dactylon
Outline: as §1

[2] = 125 g ai/ha, scale 0 (no effect) to 100 (complete control), visual, 12 to 14 days, preemergence
[3] = 250 g ai/ha, scale 0 to 100 (0 no effect, 100 complete control), visual, 12 to 14 days, preemergence
[4] = Preemergence, 500 g ai/ha, scale 0 to 100, 0 no effect, 100 complete control

`CCN1N=C(C(C)(C)C)CC1C(=O)Nc1cc(C(=O)N(C)C)ccc1F` (stereo not shown) [Compound 268, N-[5-[(dimethylamino)carbonyl]-2-fluorophenyl]-3-(1,1-dimethylethyl)-1-ethyl-4,5-dihydro-1H-pyrazole-5-carboxamide] was tested, and the pest or weed control at 62 g/ha (velvetleaf; Abutilon theophrasti, pre-emergence, 62 g ai/ha, preemergence, scale 0 to 100, read-out: Plant response rating, Velvetleaf) was 60%, the pest or weed control at 250 g/ha (velvetleaf; Abutilon theophrasti, pre-emergence, 250 g ai/ha, scale 0-100, read-out: Plant response rating, Velvetleaf) was 100% and the pest or weed control at 500 g/ha (velvetleaf; Abutilon theophrasti, pre-emergence, 500 g ai/ha, scale 0 to 100 (0 no effect, 100 complete control), visual, 12 to 14 days, read-out: Plant response rating, Velvetleaf) was 100%. It also gave a pest or weed control at 500 g/ha (morningglory; post-emergence, Postemergence, 500 g ai/ha, 0 to 100 scale, 0 no effect, 100 complete control, read-out: Morningglory plant response rating) of 20%, a pest or weed control at 2000 g/ha (morningglory; post-emergence, Postemergence, 2000 g ai/ha, 0 to 100 scale, 0 no effect, 100 complete control, read-out: Plant response rating, Morningglory) of 40% and a pest or weed control at 2000 g/ha (morningglory; pre-emergence, Preemergence, 2000 g ai/ha, visual rating, 0 to 100 scale (0 no effect, 100 complete control), read-out: Morningglory plant response rating) of 25%. It also gave a pest or weed control at 500 g/ha (morningglory; pre-emergence, preemergence, 500 g ai/ha, visual injury, 0 to 100 scale (0 no effect, 100 complete control), read-out: Morningglory plant response rating) of 5%, a pest or weed control at 62 g/ha (giant foxtail; Setaria faberi, pre-emergence, 312 h, 62 g ai/ha, preemergence, scale 0 to 100, read-out: Plant response rating, Foxtail, Giant) of 80% and a pest or weed control at 125 g/ha (giant foxtail; Setaria faberi, pre-emergence, 312 h, 125 g ai/ha, scale 0 (no effect) to 100 (complete control), visual, 12 to 14 days, read-out: Plant response rating, Foxtail, Giant) of 95%. The pest or weed control at 250 g/ha (giant foxtail; Setaria faberi, pre-emergence, 312 h, 250 g ai/ha, scale 0-100, read-out: Plant response rating, Foxtail, Giant) was 95%, the pest or weed control at 500 g/ha (giant foxtail; Setaria faberi, pre-emergence, 312 h, 500 g ai/ha, scale 0 to 100 (0 no effect, 100 complete control), visual, 12 to 14 days, read-out: Plant response rating, Foxtail, Giant) was 100% and the pest or weed control at 62 g/ha (barnyardgrass; Echinochloa crus-galli, 62 g ai/ha, scale 0 to 100 (0 no effect, 100 complete control), read-out: Barnyardgrass plant response rating) was 65%. For the same molecule, the pest or weed control at 125 g/ha (barnyardgrass; Echinochloa crus-galli, 125 g ai/ha, scale 0 to 100 (0 no effect, 100 complete control), read-out: Barnyardgrass plant response rating) was 90%, the pest or weed control at 250 g/ha (barnyardgrass; Echinochloa crus-galli, 250 g ai/ha, scale of 0 to 100, 0 is no effect, 100 is complete control, read-out: Barnyardgrass plant response rating) was 95% and the pest or weed control at 500 g/ha (barnyardgrass; Echinochloa crus-galli, 500 g ai/ha, visual rating after 12 to 14 days, scale 0 to 100 (0 no effect, 100 complete control), read-out: Plant response rating, Barnyardgrass) was 95%. For the same molecule, the pest or weed control at 62 g/ha (yellow nutsedge; Cyperus, pre-emergence, 62 g ai/ha, preemergence, scale 0 to 100, read-out: Plant response rating, Nutsedge, Yellow) was 30%, the pest or weed control at 125 g/ha (yellow nutsedge; Cyperus, pre-emergence, 125 g ai/ha, scale 0 (no effect) to 100 (complete control), visual, 12 to 14 days, read-out: Plant response rating, Nutsedge, Yellow) was 50% and the pest or weed control at 250 g/ha (yellow nutsedge; Cyperus, pre-emergence, 250 g ai/ha, scale 0-100, read-out: Plant response rating, Nutsedge, Yellow) was 60%. For the same molecule, the pest or weed control at 500 g/ha (yellow nutsedge; Cyperus, pre-emergence, 500 g ai/ha, scale 0 to 100 (0 no effect, 100 complete control), visual, 12 to 14 days, read-out: Plant response rating, Nutsedge, Yellow) was 70%, the pest or weed control at 62 g/ha (woolly cupgrass; Eriochloa villosa, pre-emergence, 312 h, 62 g ai/ha, preemergence, scale 0 to 100, read-out: Plant response rating, Cupgrass, Woolly) was 50% and the pest or weed control at 125 g/ha (woolly cupgrass; Eriochloa villosa, pre-emergence, 312 h, 125 g ai/ha, scale 0 (no effect) to 100 (complete control), visual, 12 to 14 days, read-out: Plant response rating, Cupgrass, Woolly) was 70%. The pest or weed control at 250 g/ha (woolly cupgrass; Eriochloa villosa, pre-emergence, 312 h, 250 g ai/ha, scale 0-100, read-out: Plant response rating, Cupgrass, Woolly) was 95%, the pest or weed control at 500 g/ha (woolly cupgrass; Eriochloa villosa, pre-emergence, 312 h, 500 g ai/ha, scale 0 to 100 (0 no effect, 100 complete control), visual, 12 to 14 days, read-out: Plant response rating, Cupgrass, Woolly) was 95% and the pest or weed control at 62 g/ha ([1]; Helianthus annuus, pre-emergence, 62 g ai/ha, preemergence, scale 0 to 100, read-out: Plant response rating, Sunflower) was 0%. The pest or weed control at 250 g/ha ([1]; Helianthus annuus, pre-emergence, 250 g ai/ha, scale 0-100, read-out: Plant response rating, Sunflower) was 60%, the pest or weed control at 500 g/ha ([1]; Helianthus annuus, pre-emergence, 500 g ai/ha, scale 0 to 100 (0 no effect, 100 complete control), visual, 12 to 14 days, read-out: Plant response rating, Sunflower) was 90% and the pest or weed control at 62 g/ha (bermudagrass; Cynodon dactylon, pre-emergence, 312 h, 62 g ai/ha, preemergence, scale 0 to 100, 0 no effect, 100 complete control, read-out: Plant response rating, Bermudagrass) was 100%. It also gave a pest or weed control at 125 g/ha (bermudagrass; Cynodon dactylon, pre-emergence, 312 h, 125 g ai/ha, scale 0 (no effect) to 100 (complete control), visual, 12 to 14 days, read-out: Plant response rating, Bermudagrass) of 100%, a pest or weed control at 250 g/ha (bermudagrass; Cynodon dactylon, pre-emergence, 312 h, 250 g ai/ha, scale 0-100, read-out: Plant response rating, Bermudagrass) of 100% and a pest or weed control at 500 g/ha (bermudagrass; Cynodon dactylon, pre-emergence, 312 h, Preemergence, 500 g ai/ha, scale 0 to 100, 0 no effect, 100 complete control, read-out: Bermudagrass plant response rating) of 100%.

With `CCN1CCc2c(NC(=O)c3cc(C(C)(C)C)nn3CC)cccc2C1=O` [Compound 63] the “Plant response rating, Velvetleaf” value (velvetleaf; [2]) was 10, the “Plant response rating, Velvetleaf” value (velvetleaf; [3]) was 30 and the “Velvetleaf plant response rating” value (velvetleaf; [4]) was 100. For the same molecule, the “Plant response rating, Morningglory” value (morningglory; Postemergence, 500 g ai/ha, 0 to 100 scale, 0 no effect, 100 complete control) was 15, the “Plant response rating, Morningglory” value (morningglory; Postemergence, 2000 g ai/ha, 0 to 100 scale, 0 no effect, 100 complete control) was 15 and the “Morningglory plant response rating” value (morningglory; Preemergence, 500 g ai/ha, visual rating, 0 to 100 scale (0 no effect, 100 complete control)) was 10. For the same molecule, the “Morningglory plant response rating” value (morningglory; Preemergence, 2000 g ai/ha, 0 to 100 scale, 0 no effect, 100 complete control) was 70, the “Plant response rating (0 = no effect, 100 = complete control), Foxtail, Giant” value (giant foxtail; 62 g ai/ha, preemergence) was 0 and the “Plant response rating, Foxtail, Giant” value (giant foxtail; [2]) was 5. For the same molecule, the “Plant response rating, Foxtail, Giant” value (giant foxtail; [3]) was 10, the “Foxtail, Giant plant response rating” value (giant foxtail; [4]) was 80 and the “Barnyardgrass plant response rating” value (barnyardgrass; 62 g ai/ha, scale 0 to 100 (0 no effect, 100 complete control)) was 0. For the same molecule, the “Barnyardgrass plant response rating” value (barnyardgrass; 125 g ai/ha, scale of 0 to 100, 0 is no effect, 100 is complete control) was 0, the “Barnyardgrass plant response rating” value (barnyardgrass; 250 g ai/ha, scale of 0 to 100, 0 is no effect, 100 is complete control) was 20 and the “Plant response rating, Barnyardgrass” value (barnyardgrass; 500 g ai/ha, visual rating after 12 to 14 days, scale 0 to 100 (0 no effect, 100 complete control)) was 50. The “Plant response rating (0 = no effect, 100 = complete control), Nutsedge, Yellow” value (yellow nutsedge; 62 g ai/ha, preemergence) was 0, the “Plant response rating, Nutsedge, Yellow” value (yellow nutsedge; [2]) was 0 and the “Plant response rating, Nutsedge, Yellow” value (yellow nutsedge; [3]) was 0. The “Nutsedge, Yellow plant response rating” value (yellow nutsedge; [4]) was 40, the “Plant response rating (0 = no effect, 100 = complete control), Cupgrass, Woolly” value (woolly cupgrass; 62 g ai/ha, preemergence) was 0 and the “Plant response rating, Cupgrass, Woolly” value (woolly cupgrass; [2]) was 0. For the same molecule, the “Plant response rating, Cupgrass, Woolly” value (woolly cupgrass; [3]) was 0, the “Cupgrass, Woolly plant response rating” value (woolly cupgrass; [4]) was 5 and the “Plant response rating (0 = no effect, 100 = complete control), Sunflower” value ([1]; 62 g ai/ha, preemergence) was 0. For the same molecule, the “Plant response rating, Sunflower” value [1, 2] was 0, the “Plant response rating, Sunflower” value [1, 3] was 0 and the “Sunflower plant response rating” value [1, 4] was 30. The “Plant response rating (0 = no effect, 100 = complete control), Bermudagrass” value (bermudagrass; 62 g ai/ha, preemergence) was 50, the “Plant response rating, Bermudagrass” value (bermudagrass; [2]) was 90 and the “Plant response rating, Bermudagrass” value (bermudagrass; [3]) was 90. The “Bermudagrass plant response rating” value (bermudagrass; [4]) was 100.
